Measurements from PubChem BioAssay (NCI).
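Method: 48-hour compound exposure of cells in 96-well plates, five concentrations, linear interpolation of endpoints. TGI: concentration producing complete growth inhibition.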

How the values were obtained:
Experiment in all cases: DTP human tumour cell line panel, 48 h
SF-539 CNS = test system: SF-539 CNS
UACC-257 melanoma = test system: UACC-257 melanoma
OVCAR-4 ovarian = test system: OVCAR-4 ovarian
NCI-H460 lung = test system: NCI-H460 lung
NCI-H23 lung = test system: NCI-H23 lung
U251 CNS = test system: U251 CNS
TK-10 renal = test system: TK-10 renal
M14 melanoma = test system: M14 melanoma
NCI/ADR-RES ovarian = test system: NCI/ADR-RES ovarian
MOLT-4 leukemia = test system: MOLT-4 leukemia
HS 578T breast = test system: HS 578T breast
CAKI-1 renal = test system: CAKI-1 renal
CCRF-CEM leukemia = test system: CCRF-CEM leukemia
SNB-19 CNS = test system: SNB-19 CNS
MALME-3M melanoma = test system: MALME-3M melanoma
SK-MEL-2 melanoma = test system: SK-MEL-2 melanoma
BT-549 breast = test system: BT-549 breast
OVCAR-3 ovarian = test system: OVCAR-3 ovarian
EKVX NSCLC = test system: EKVX NSCLC
K-562 leukemia = test system: K-562 leukemia
PC-3 prostate = test system: PC-3 prostate
A549 NSCLC = test system: A549 NSCLC
SK-MEL-28 melanoma = test system: SK-MEL-28 melanoma
COLO 205 colon = test system: COLO 205 colon
NCI-H226 lung = test system: NCI-H226 lung
HT29 colon = test system: HT29 colon
UO-31 renal = test system: UO-31 renal
A498 renal = test system: A498 renal
IGROV1 ovarian = test system: IGROV1 ovarian
MDA-N = test system: MDA-N
SK-MEL-5 melanoma = test system: SK-MEL-5 melanoma
HCT-116 colon = test system: HCT-116 colon
OVCAR-5 ovarian = test system: OVCAR-5 ovarian
LOX IMVI melanoma = test system: LOX IMVI melanoma
786-0 renal = test system: 786-0 renal
T-47D breast = test system: T-47D breast
MDA-MB-231 breast = test system: MDA-MB-231 breast
HL-60(TB) leukemia = test system: HL-60(TB) leukemia
SF-295 CNS = test system: SF-295 CNS
HCC-2998 colon = test system: HCC-2998 colon
HCT-15 colon = test system: HCT-15 colon
HOP-92 NSCLC = test system: HOP-92 NSCLC
RPMI-8226 leukemia = test system: RPMI-8226 leukemia
KM12 colon = test system: KM12 colon
HOP-62 NSCLC = test system: HOP-62 NSCLC
SW-620 colon = test system: SW-620 colon
RXF 393 renal = test system: RXF 393 renal
MCF7 breast = test system: MCF7 breast
SF-268 CNS = test system: SF-268 CNS
OVCAR-8 ovarian = test system: OVCAR-8 ovarian
DU-145 prostate = test system: DU-145 prostate
ACHN renal = test system: ACHN renal
NCI-H522 lung = test system: NCI-H522 lung
SNB-75 CNS = test system: SNB-75 CNS
MDA-MB-435 = test system: MDA-MB-435
UACC-62 melanoma = test system: UACC-62 melanoma
SN12C renal = test system: SN12C renal
SK-OV-3 ovarian = test system: SK-OV-3 ovarian
SR leukemia = test system: SR leukemia

C/C(=N\NC(=O)c1ccncc1)c1sc(-n2nc(-c3ccccc3)cc2-c2ccccc2)nc1C
TGI (SF-539 CNS): > 31.6 µM
TGI (UACC-257 melanoma): > 31.6 µM
TGI (OVCAR-4 ovarian): > 31.6 µM
TGI (NCI-H460 lung): > 31.6 µM
TGI (NCI-H23 lung): > 31.6 µM
TGI (U251 CNS): > 31.6 µM
TGI (TK-10 renal): > 31.6 µM
TGI (M14 melanoma): > 31.6 µM
TGI (NCI/ADR-RES ovarian): > 100 µM
TGI (MOLT-4 leukemia): > 31.6 µM
TGI (HS 578T breast): > 100 µM
TGI (CAKI-1 renal): > 100 µM
TGI (CCRF-CEM leukemia): > 31.6 µM
TGI (SNB-19 CNS): > 31.6 µM
TGI (MALME-3M melanoma): > 100 µM
TGI (SK-MEL-2 melanoma): > 31.6 µM
TGI (BT-549 breast): > 31.6 µM
TGI (OVCAR-3 ovarian): > 31.6 µM
TGI (EKVX NSCLC): > 100 µM
TGI (K-562 leukemia): > 100 µM
TGI (PC-3 prostate): > 31.6 µM
TGI (A549 NSCLC): > 31.6 µM
TGI (SK-MEL-28 melanoma): > 31.6 µM
TGI (COLO 205 colon): > 100 µM
TGI (NCI-H226 lung): > 100 µM
TGI (HT29 colon): > 100 µM
TGI (UO-31 renal): > 31.6 µM
TGI (A498 renal): > 100 µM
TGI (IGROV1 ovarian): > 100 µM
TGI (MDA-N): > 100 µM
TGI (SK-MEL-5 melanoma): > 31.6 µM
TGI (HCT-116 colon): > 31.6 µM
TGI (OVCAR-5 ovarian): > 31.6 µM
TGI (LOX IMVI melanoma): > 100 µM
TGI (786-0 renal): > 31.6 µM
TGI (T-47D breast): > 31.6 µM
TGI (MDA-MB-231 breast): > 100 µM
TGI (HL-60(TB) leukemia): > 31.6 µM
TGI (SF-295 CNS): > 31.6 µM
TGI (HCC-2998 colon): > 31.6 µM
TGI (HCT-15 colon): > 31.6 µM
TGI (HOP-92 NSCLC): > 31.6 µM
TGI (RPMI-8226 leukemia): > 31.6 µM
TGI (KM12 colon): > 100 µM
TGI (HOP-62 NSCLC): > 31.6 µM
TGI (SW-620 colon): > 31.6 µM
TGI (RXF 393 renal): > 31.6 µM
TGI (MCF7 breast): > 31.6 µM
TGI (SF-268 CNS): > 100 µM
TGI (OVCAR-8 ovarian): > 100 µM
TGI (DU-145 prostate): > 31.6 µM
TGI (ACHN renal): > 31.6 µM
TGI (NCI-H522 lung): > 80.5 µM
TGI (SNB-75 CNS): > 100 µM
TGI (MDA-MB-435): > 31.6 µM
TGI (UACC-62 melanoma): > 31.6 µM
TGI (SN12C renal): > 100 µM
TGI (SK-OV-3 ovarian): > 31.6 µM
TGI (SR leukemia): > 31.6 µM

CC(=O)OCC1(C)C(O)CCC2(C)C1CCC1CC3CC12CCC3(O)CO (stereo not drawn)
TGI (SF-539 CNS): > 100 µM
TGI (UACC-257 melanoma): > 100 µM
TGI (OVCAR-4 ovarian): > 100 µM
TGI (NCI-H460 lung): > 100 µM
TGI (NCI-H23 lung): > 100 µM
TGI (U251 CNS): > 100 µM
TGI (TK-10 renal): > 100 µM
TGI (M14 melanoma): > 100 µM
TGI (NCI/ADR-RES ovarian): > 100 µM
TGI (MOLT-4 leukemia): > 100 µM
TGI (HS 578T breast): > 100 µM
TGI (CAKI-1 renal): > 100 µM
TGI (CCRF-CEM leukemia): > 100 µM
TGI (SNB-19 CNS): > 100 µM
TGI (MALME-3M melanoma): > 100 µM
TGI (SK-MEL-2 melanoma): > 100 µM
TGI (BT-549 breast): > 100 µM
TGI (OVCAR-3 ovarian): > 100 µM
TGI (EKVX NSCLC): > 100 µM
TGI (K-562 leukemia): > 100 µM
TGI (PC-3 prostate): > 100 µM
TGI (A549 NSCLC): > 100 µM
TGI (SK-MEL-28 melanoma): > 100 µM
TGI (COLO 205 colon): > 100 µM
TGI (NCI-H226 lung): > 100 µM
TGI (HT29 colon): > 100 µM
TGI (UO-31 renal): > 100 µM
TGI (A498 renal): 8.59 µM
TGI (IGROV1 ovarian): > 100 µM
TGI (MDA-N): > 100 µM
TGI (SK-MEL-5 melanoma): > 100 µM
TGI (HCT-116 colon): > 100 µM
TGI (OVCAR-5 ovarian): > 100 µM
TGI (LOX IMVI melanoma): > 100 µM
TGI (786-0 renal): > 100 µM
TGI (T-47D breast): > 100 µM
TGI (MDA-MB-231 breast): > 100 µM
TGI (HL-60(TB) leukemia): > 100 µM
TGI (SF-295 CNS): > 100 µM
TGI (HCC-2998 colon): > 100 µM
TGI (HCT-15 colon): > 100 µM
TGI (HOP-92 NSCLC): > 100 µM
TGI (RPMI-8226 leukemia): > 100 µM
TGI (KM12 colon): > 100 µM
TGI (HOP-62 NSCLC): > 100 µM
TGI (SW-620 colon): > 100 µM
TGI (RXF 393 renal): > 100 µM
TGI (MCF7 breast): > 100 µM
TGI (SF-268 CNS): > 100 µM
TGI (OVCAR-8 ovarian): > 100 µM
TGI (DU-145 prostate): > 100 µM
TGI (ACHN renal): > 100 µM
TGI (NCI-H522 lung): > 100 µM
TGI (SNB-75 CNS): > 100 µM
TGI (MDA-MB-435): > 100 µM
TGI (UACC-62 melanoma): > 100 µM
TGI (SN12C renal): > 100 µM
TGI (SK-OV-3 ovarian): > 100 µM
TGI (SR leukemia): > 29.4 µM
